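Cultured in 96-well plates, cells were exposed to test compound for 48 hours across five concentrations. The concentration for 50% growth inhibition is given as GI50.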 Active and inactive are the calls of the source. Rule as the data show it: active = GI50 up to about 1.1 µM and inactive = higher.
Experiments:
Assay in all cases: DTP human tumour cell line panel, 48 h
OVCAR-3 = test system: OVCAR-3
CAKI-1 = test system: CAKI-1
SF-539 = test system: SF-539
MDA-MB-435 = test system: MDA-MB-435
HCT-116 = test system: HCT-116
SN12C = test system: SN12C
RXF 393 = test system: RXF 393
Malme-3M = test system: Malme-3M
NCI-H460 = test system: NCI-H460
A549 = test system: A549
SF-295 = test system: SF-295
MDA-N = test system: MDA-N
SNB-75 = test system: SNB-75
M14 = test system: M14
LOX IMVI = test system: LOX IMVI
MCF7 = test system: MCF7
UO-31 = test system: UO-31
NCI-H23 = test system: NCI-H23
OVCAR-8 = test system: OVCAR-8
HL-60 = test system: HL-60

Structure (SMILES) | GI50 (OVCAR-3) | GI50 (CAKI-1) | GI50 (SF-539) | GI50 (MDA-MB-435) | GI50 (HCT-116) | GI50 (SN12C) | GI50 (RXF 393) | GI50 (Malme-3M) | GI50 (NCI-H460) | GI50 (A549) | GI50 (SF-295) | GI50 (MDA-N) | GI50 (SNB-75) | GI50 (M14) | GI50 (LOX IMVI) | GI50 (MCF7) | GI50 (UO-31) | GI50 (NCI-H23) | GI50 (OVCAR-8) | GI50 (HL-60)
C=C(C)C1CC2=C(O1)C(=O)c1cccc(O)c1C2=O (stereo unspecified) | 0.214 µM (active) | 0.764 µM (active) | 0.671 µM (active) | 0.129 µM (active) | 10.9 µM (inactive) | 1.21 µM (inactive) | 1.04 µM (active) | 1.08 µM (active) | 1.91 µM (inactive) | 2.47 µM (inactive) | 1.36 µM (inactive) | 0.064 µM (active) | 2.29 µM (inactive) | 0.951 µM (active) | 4.26 µM (inactive) | 0.586 µM (active) | 1.41 µM (inactive) | 0.244 µM (active) |  | 
c1ccc2nn(C3CCCCO3)nc2c1 (stereo unspecified) | > 100 µM (inactive) | > 100 µM (inactive) | > 100 µM (inactive) | > 100 µM (inactive) | > 100 µM (inactive) | > 100 µM (inactive) | > 100 µM (inactive) | > 100 µM (inactive) | > 100 µM (inactive) | > 100 µM (inactive) | > 100 µM (inactive) | > 100 µM (inactive) | > 100 µM (inactive) | > 100 µM (inactive) |  | > 100 µM (inactive) | > 100 µM (inactive) | > 100 µM (inactive) | > 100 µM (inactive) | 
COc1ccc(OC2OC(COC(c3ccccc3)(c3ccc(OC)cc3)c3ccc(OC)cc3)C(O)C(O)C2O)cc1 (stereo unspecified) | 4.21 µM (inactive) | 4.75 µM (inactive) | 4.42 µM (inactive) | 3.13 µM (inactive) | 3.26 µM (inactive) | 2.51 µM (inactive) |  | 2.77 µM (inactive) | 2.99 µM (inactive) | 2.99 µM (inactive) | 4.28 µM (inactive) | 4.37 µM (inactive) | 3.32 µM (inactive) | 2.84 µM (inactive) | 1.8 µM (inactive) | 3.75 µM (inactive) | 2.06 µM (inactive) | 3.66 µM (inactive) | 5.24 µM (inactive) | 2.58 µM (inactive)
Brc1ccc(-c2nc(-c3ccc(Br)cc3)n(-c3ccccc3)n2)cc1 | > 100 µM (inactive) | > 100 µM (inactive) | > 100 µM (inactive) | 46.7 µM (inactive) | 38 µM (inactive) | > 100 µM (inactive) |  |  | > 100 µM (inactive) | 61.8 µM (inactive) | > 100 µM (inactive) | > 100 µM (inactive) | 54.3 µM (inactive) | > 100 µM (inactive) | > 100 µM (inactive) | > 100 µM (inactive) | > 100 µM (inactive) | > 100 µM (inactive) | > 100 µM (inactive) | 34.8 µM (inactive)
CN(C)CCn1c(=O)nc2c3c(c([N+](=O)[O-])ccc31)Nc1ccc(O)cc1-2 | 2.01 µM (inactive) | 5.53 µM (inactive) | 1.7 µM (inactive) | 10.4 µM (inactive) | 1.57 µM (inactive) | 2.61 µM (inactive) | 1.63 µM (inactive) | 3.67 µM (inactive) | 0.977 µM (active) | 2.53 µM (inactive) | 7.21 µM (inactive) | 6.7 µM (inactive) | 6.28 µM (inactive) | 13.4 µM (inactive) | 1.27 µM (inactive) | 1.32 µM (inactive) | 3.44 µM (inactive) | 5.46 µM (inactive) | 1.82 µM (inactive) | 
O=C1C=C(N2CCN(c3ncccn3)CC2)C(=O)c2c(O)ccc(O)c21 | > 100 µM (inactive) | > 100 µM (inactive) | 21.6 µM (inactive) | 7.21 µM (inactive) | 73.1 µM (inactive) | > 100 µM (inactive) |  | 6.35 µM (inactive) | > 100 µM (inactive) | > 100 µM (inactive) | > 100 µM (inactive) | 14.5 µM (inactive) |  | > 100 µM (inactive) | > 100 µM (inactive) | > 100 µM (inactive) | > 100 µM (inactive) | > 100 µM (inactive) | > 100 µM (inactive) | > 100 µM (inactive)
N#Cc1c2c(c(N3CCOCC3)n3c1nc1ccccc13)CCCC2 | 18.8 µM (inactive) | 19.1 µM (inactive) | 19.1 µM (inactive) | 20.2 µM (inactive) | 13.9 µM (inactive) | 19.9 µM (inactive) |  | 17.7 µM (inactive) | 23.7 µM (inactive) | 23.8 µM (inactive) | 17.9 µM (inactive) | 18.4 µM (inactive) |  | 21.5 µM (inactive) | 17.3 µM (inactive) | 26.2 µM (inactive) | 18.4 µM (inactive) | 19.5 µM (inactive) | 19.2 µM (inactive) | 13.8 µM (inactive)
COc1ccc2[nH]cc(CCNC(=O)[C@H](Cc3ccc(O)cc3)NC(=O)[C@@H](NCC(F)(F)F)C(C)C)c2c1 | 20.1 µM (inactive) |  | > 100 µM (inactive) | 25.2 µM (inactive) | 95.5 µM (inactive) | > 100 µM (inactive) | > 100 µM (inactive) | > 100 µM (inactive) | 48 µM (inactive) | 45.7 µM (inactive) | 39.7 µM (inactive) | 45.1 µM (inactive) |  | > 100 µM (inactive) | 25.2 µM (inactive) | 35.5 µM (inactive) | > 100 µM (inactive) | > 100 µM (inactive) | 76 µM (inactive) | 41.3 µM (inactive)
OCC1C2CCC3(OCCO3)C12 (stereo unspecified) | > 100 µM (inactive) | > 100 µM (inactive) | > 100 µM (inactive) | > 100 µM (inactive) | > 100 µM (inactive) | > 100 µM (inactive) | > 100 µM (inactive) | 57.3 µM (inactive) | > 100 µM (inactive) | > 100 µM (inactive) | > 100 µM (inactive) | > 100 µM (inactive) | > 100 µM (inactive) | > 100 µM (inactive) | > 100 µM (inactive) | > 100 µM (inactive) | 15.4 µM (inactive) | 18.2 µM (inactive) | > 100 µM (inactive) | 
c1cc2c(cc1C(N1CCNCC1)N1CCNCC1)OCO2 | > 100 µM (inactive) | > 100 µM (inactive) | > 100 µM (inactive) | > 100 µM (inactive) | > 100 µM (inactive) | > 100 µM (inactive) | > 100 µM (inactive) | > 100 µM (inactive) | > 100 µM (inactive) | > 100 µM (inactive) | > 100 µM (inactive) | > 100 µM (inactive) | > 100 µM (inactive) | > 100 µM (inactive) | > 100 µM (inactive) | > 100 µM (inactive) | > 100 µM (inactive) | > 100 µM (inactive) | > 100 µM (inactive) | 
CCCCCC(=O)CCCCCCCC(O)CC(=O)OCC (stereo unspecified) | > 100 µM (inactive) | > 100 µM (inactive) | > 100 µM (inactive) | > 100 µM (inactive) | > 100 µM (inactive) | > 100 µM (inactive) |  | > 100 µM (inactive) | > 100 µM (inactive) | > 100 µM (inactive) | > 10 µM (inactive) | > 100 µM (inactive) |  | > 100 µM (inactive) | > 100 µM (inactive) | > 100 µM (inactive) | > 100 µM (inactive) | > 100 µM (inactive) | > 100 µM (inactive) | 48.9 µM (inactive)
CN(C)c1ccc(/C(Br)=C2\OC(=O)c3ccccc32)cc1 |  | > 100 µM (inactive) | > 100 µM (inactive) | 36.1 µM (inactive) | > 100 µM (inactive) | > 100 µM (inactive) |  | 67.1 µM (inactive) | > 100 µM (inactive) | > 100 µM (inactive) | 76.2 µM (inactive) | 40.1 µM (inactive) | 80.7 µM (inactive) | > 100 µM (inactive) | > 100 µM (inactive) | 0.759 µM (active) | > 100 µM (inactive) | > 100 µM (inactive) | > 100 µM (inactive) | 34 µM (inactive)
COc1c(OC)c(OC)c(C(=O)/C=C/c2ccccc2)c(OC)c1OC | 9.29 µM (inactive) | 13.9 µM (inactive) | 9.02 µM (inactive) | 5.06 µM (inactive) | 6.11 µM (inactive) | 10.6 µM (inactive) |  | 10.1 µM (inactive) | 6.46 µM (inactive) | 12.5 µM (inactive) | 12.4 µM (inactive) | 5.51 µM (inactive) | 8.91 µM (inactive) | 12 µM (inactive) | 10 µM (inactive) | 5.82 µM (inactive) | 10.5 µM (inactive) | 11 µM (inactive) | 10.3 µM (inactive) | 7.11 µM (inactive)
Cc1cn(C(Cc2ccccc2)OCCO)c(=O)[nH]c1=O (stereo unspecified) | > 100 µM (inactive) | > 100 µM (inactive) | > 100 µM (inactive) | > 100 µM (inactive) | > 100 µM (inactive) | > 100 µM (inactive) | > 100 µM (inactive) |  | > 100 µM (inactive) | > 100 µM (inactive) | > 100 µM (inactive) | > 100 µM (inactive) | > 100 µM (inactive) | > 100 µM (inactive) | > 100 µM (inactive) | > 100 µM (inactive) | > 100 µM (inactive) | > 100 µM (inactive) | > 100 µM (inactive) | 
OCCN(C1=NCCN1)/[N+](=C/c1ccc(Cl)cc1)[CH-]c1ccc(Cl)cc1 | > 100 µM (inactive) | > 100 µM (inactive) | > 100 µM (inactive) | > 100 µM (inactive) | 95.5 µM (inactive) | > 100 µM (inactive) | 15.5 µM (inactive) | > 100 µM (inactive) | > 100 µM (inactive) | > 100 µM (inactive) | > 100 µM (inactive) | > 100 µM (inactive) | > 100 µM (inactive) | 83.9 µM (inactive) | 51.6 µM (inactive) | > 100 µM (inactive) | > 100 µM (inactive) | > 100 µM (inactive) | > 100 µM (inactive) | 

— ChEMBL document CHEMBL1201862, “PubChem BioAssay data set” (2004)
